What was measured:
[1] = molecular target: Beta-1 adrenergic receptor (Rattus norvegicus) (UniProt P18090)
Description: Mean concentration required to increase basal rate of rat atria by 20 beats per minute

[2] = molecular target: Beta-1 adrenergic receptor (Rattus norvegicus) (UniProt P18090); remark: listed apart in the source
Description: (§1) Agonistic activity for Beta-1 adrenergic receptor was estimated from it's chronotropic effect on rat atria

[3] = molecular target: Beta-1 adrenergic receptor (Rattus norvegicus) (UniProt P18090); remark: listed apart in the source
Description: as §1

[4] = molecular target: Beta-2 adrenergic receptor (Rattus norvegicus) (UniProt P10608); assay: Agonistic activity for Beta-2 adrenergic receptor was assessed by it's inhibitory effect on spontaneous contractions in isolated rat uterus
Chain of Beta-2 adrenergic receptor (Rattus norvegicus) (P10608 whole entry, looked up): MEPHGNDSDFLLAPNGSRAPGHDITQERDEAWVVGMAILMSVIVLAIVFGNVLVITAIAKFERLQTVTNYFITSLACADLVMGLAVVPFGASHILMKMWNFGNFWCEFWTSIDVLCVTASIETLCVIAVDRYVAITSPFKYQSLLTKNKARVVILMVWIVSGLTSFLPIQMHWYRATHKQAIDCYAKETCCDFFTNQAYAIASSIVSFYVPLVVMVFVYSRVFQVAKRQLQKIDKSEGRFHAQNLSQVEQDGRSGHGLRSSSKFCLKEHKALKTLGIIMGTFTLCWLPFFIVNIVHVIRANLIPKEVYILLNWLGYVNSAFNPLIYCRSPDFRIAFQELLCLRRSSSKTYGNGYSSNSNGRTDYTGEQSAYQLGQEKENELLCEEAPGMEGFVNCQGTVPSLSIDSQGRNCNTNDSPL

Chain of Beta-1 adrenergic receptor (Rattus norvegicus) (P18090 whole entry, looked up): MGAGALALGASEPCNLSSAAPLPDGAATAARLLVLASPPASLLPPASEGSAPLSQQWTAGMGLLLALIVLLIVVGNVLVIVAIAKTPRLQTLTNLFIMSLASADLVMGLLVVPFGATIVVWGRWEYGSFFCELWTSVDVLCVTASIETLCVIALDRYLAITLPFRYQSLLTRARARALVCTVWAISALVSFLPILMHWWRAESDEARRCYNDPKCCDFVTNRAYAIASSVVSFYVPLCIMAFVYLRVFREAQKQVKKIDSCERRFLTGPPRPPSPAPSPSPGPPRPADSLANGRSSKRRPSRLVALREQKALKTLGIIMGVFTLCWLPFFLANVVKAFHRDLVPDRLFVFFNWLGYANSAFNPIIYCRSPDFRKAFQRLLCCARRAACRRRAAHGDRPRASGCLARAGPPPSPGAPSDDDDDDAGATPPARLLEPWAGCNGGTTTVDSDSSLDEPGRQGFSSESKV

EC20 [1] [µM] | pEC20 [2] | pEC20 [3] | SMILES | IC50 [4] [µM]
14 | 4.86 |  | C[C@@H](NCCc1ccc(OCC(=O)O)c(Cl)c1)[C@@H](O)c1ccc(O)cc1 | 
> 100 |  |  | C[C@H](NCCc1ccc(OCC(=O)O)c(Cl)c1)[C@H](O)c1ccc(O)cc1 | 

Continued, compound first:

SMILES | EC20 [1] [µM] | pEC20 [2] | pEC20 [3] | IC50 [4] [µM]
C[C@@H](NCCc1ccc(OCC(=O)O)c(Cl)c1)[C@H](O)c1ccc(O)cc1 | 21 |  | 4.68 | 
C[C@H](NCCc1ccc(OCC(=O)O)c(Cl)c1)[C@@H](O)c1ccc(O)cc1 | 55 |  | 4.26 | 
CCOC(=O)COc1ccc(CCNC(C)C(O)c2ccc(O)cc2)cc1Cl (stereo not given) | 1.6 |  | 5.8 | 
C[C@H](Cc1ccc(OCC(=O)O)cc1)NC[C@H](O)c1cccc(Cl)c1 (relative stereo) |  |  |  | 0.00912

Source: ChEMBL document CHEMBL1145008, “Relationship between stereochemistry and the beta3-adrenoceptor agonistic activity of 4'-hydroxynorephedrine derivative as an agent for treatment of frequent urination and urinary incontinence” (J Med Chem, 2003)
